US20180237713A1, “Ionic Liquid, Lubricant, and Magnetic Recording Medium” (priority 2015, published 2018)

How the values were obtained:
[1] = Thermal stability measurement (TG/DTA weight reduction temperature); conditions: for Thermal stability improved compared with perfluoropolyether Z-DOL or Z-TETRAOL by: difference to Z-DOL or Z-TETRAOL; for 5%, 10%, 20% weight reduction temperatures (thermal stability) higher than perfluoropolyether Z-DOL (Comparative Example 11C) by: difference to Z-DOL; for 5%, 10%, 20% weight reduction temperatures (thermal stability) higher than Z-TETRAOL (Comparative Example 12C) by: difference to Z-TETRAOL; for Weight reduction temperature 5% / Weight reduction temperature 10% / Weight reduction temperature 20%: TG/DTA, air 200 mL/min, 10° C./min, 30° C. to 600° C.
[2] = Solubility test of ionic liquid in fluorine-based solvent VERTREL XF; conditions: for Dissolved or not in fluorine-based solvent: VERTREL XF; for Solubility to fluorine-based solvent: VERTREL XF [CF3(CHF)2CF2CF3], 25° C., ultrasonic 5 minutes, left 1 day, visual
Experimental: A solubility test was performed on the ionic liquid synthesized each of Examples and each of Comparative Examples using VERTREL XF [CF3(CHF)2CF2CF3] available from Du Pont-Mitsui Fluorochemicals Company, Ltd. as a fluorine-based solvent.
The ionic liquid was added to the predetermined mass of VERTREL XF.
Specifically, 0.5 parts by mass or 0.1 parts by mass of each ionic liquid was added to 100 parts by mass of VERTREL XF (25° C.).
Note that, a case where the mixture was visually observed to be transparent, the ionic liquid was judged as being dissolved. A case where the mixture was not transparent or insoluble matter was observed, the ionic liquid was judged as not being dissolved (insoluble).
The ionic liquid was dissolved when 0.5 parts by mass of the ionic liquid was added.
The ionic liquid was not dissolved when 0.5 parts by mass of the ionic liquid was added, but the ionic liquid was dissolved when 0.1 parts by mass of the ionic liquid was added.
The ionic liquid was not dissolved both when 0.5 parts by mass of the ionic liquid was added and when 0.1 parts by mass of the ionic liquid was added.

Compound	Thermal stability compared to perfluoropolyether Z-DOL or Z-TETRAOL [1]	Weight reduction temperature 5% [1]	Weight reduction temperature 10% [1]	Weight reduction temperature 20% [1]	other results
CCCCCCCCCCCCCCCCCCN1CCCC1.O=S(=O)(NS(=O)(=O)C(F)(F)C(F)(F)C(F)(F)C(F)(F)F)C(F)(F)C(F)(F)C(F)(F)C(F)(F)F					Thermal stability improved compared with perfluoropolyether Z-DOL or Z-TETRAOL by [1]: ≥ 70 °C
CCCCCCCCCCCCCCCCCC[n+]1ccn(CCC(F)(F)C(F)(F)C(F)(F)C(F)(F)C(F)(F)C(F)(F)C(F)(F)C(F)(F)F)c1.O=S(=O)([N-]S(=O)(=O)C(F)(F)C(F)(F)C(F)(F)C(F)(F)F)C(F)(F)C(F)(F)C(F)(F)C(F)(F)F					5%, 10%, 20% weight reduction temperatures (thermal stability) higher than perfluoropolyether Z-DOL (Comparative Example 11C) by [1]: ≥ 150 °C; 5%, 10%, 20% weight reduction temperatures (thermal stability) higher than Z-TETRAOL (Comparative Example 12C) by [1]: ≥ 90 °C
tris(trifluoromethanesulfonyl)methide-6-octadecyl-1,8-diazabicyclo[5.4.0]-7-undecenium	high	354.9 °C	385.0 °C	404.3 °C	
heptadecafluorooctanesulfonic acid-6-octadecyl-1,8-diazabicyclo[5.4.0]-7-undecenium	high	361.9 °C	382.7 °C	403.5 °C	
nonafluorobutanesulfonic acid-N-octadecylpyrrolidinium [Ex. 6A]					Dissolved or not in fluorine-based solvent [2]: could be dissolved
CCCCCCCCCCCCCCCCCCn1cc[n+](CCC[n+]2ccn(CCCCCCCCCCCCCCCCCC)c2)c1.O=S(=O)([N-]S(=O)(=O)C(F)(F)C(F)(F)C(F)(F)C(F)(F)F)C(F)(F)C(F)(F)C(F)(F)C(F)(F)F.O=S(=O)([N-]S(=O)(=O)C(F)(F)C(F)(F)C(F)(F)C(F)(F)F)C(F)(F)C(F)(F)C(F)(F)C(F)(F)F		352.3 °C	381.9 °C	401.4 °C	
tris(trifluoromethanesulfonyl)methide-6-octadecyl-1,8-diazabicyclo[5.4.0]-7-undecenium [Comp. Ex. 3A, reference compound]					Dissolved or not in fluorine-based solvent [2]: not dissolved; Solubility to fluorine-based solvent [2]: less than 0.1% by mass
CCCCCCCCCCCCCCCCCCN1CCCN2CCCN=C12.O=S1(=O)NS(=O)(=O)C(F)(F)C(F)(F)C1(F)F	high				
CCCCCCCCCCCCCCCCCCC1CCCCN2CCCN=C12.O=S1(=O)NS(=O)(=O)C(F)(F)C(F)(F)C1(F)F (centres unmarked)	high				
CCCCCCCCCCCCCCCCCC[n+]1ccn(CCC(F)(F)C(F)(F)C(F)(F)C(F)(F)C(F)(F)C(F)(F)C(F)(F)C(F)(F)F)c1.O=S(=O)([N-]S(=O)(=O)C(F)(F)C(F)(F)C(F)(F)C(F)(F)F)C(F)(F)C(F)(F)C(F)(F)C(F)(F)F [Ex. 8A, bis(nonafluorobutanesulfonyl)imide-1-1′H,1′H,2′H,2′H-heptadecafluorodecyl-3-octadecylimidazolium]		335.8 °C	358.5 °C	377.7 °C	
CCCCCCCCCCCCCCCCCCN1CCCC1.O=S1(=O)NS(=O)(=O)C(F)(F)C(F)(F)C1(F)F	high				
CCCCCCCCCCCCCCCCCCC1CCCCN2CCCN=C12.O=S(=O)(NS(=O)(=O)C(F)(F)C(F)(F)C(F)(F)C(F)(F)F)C(F)(F)C(F)(F)C(F)(F)C(F)(F)F		352.9 °C	378.2 °C	396.7 °C	5%, 10%, 20% weight reduction temperatures (thermal stability) higher than perfluoropolyether Z-DOL (Comparative Example 11C) by [1]: ≥ 100 °C; 5%, 10%, 20% weight reduction temperatures (thermal stability) higher than Z-TETRAOL (Comparative Example 12C) by [1]: ≥ 50 °C
CCCCCCCCCCCCCCCCCCn1cc[n+](CCCCCCCCC[n+]2ccn(CCCCCCCCCCCCCCCCCC)c2)c1.O=S(=O)([N-]S(=O)(=O)C(F)(F)C(F)(F)C(F)(F)C(F)(F)F)C(F)(F)C(F)(F)C(F)(F)C(F)(F)F.O=S(=O)([N-]S(=O)(=O)C(F)(F)C(F)(F)C(F)(F)C(F)(F)F)C(F)(F)C(F)(F)C(F)(F)C(F)(F)F					5%, 10%, 20% weight reduction temperatures (thermal stability) higher than perfluoropolyether Z-DOL (Comparative Example 11C) by [1]: ≥ 170 °C; 5%, 10%, 20% weight reduction temperatures (thermal stability) higher than Z-TETRAOL (Comparative Example 12C) by [1]: ≥ 110 °C
heptadecafluorooctanesulfonic acid-7-octadecyl-1,5,7-triazabicyclo[4.4.0]-5-decenium [Comp. Ex. 5A, reference compound]					Dissolved or not in fluorine-based solvent [2]: not dissolved; Solubility to fluorine-based solvent [2]: less than 0.1% by mass
CCCCCCCCCCCCCCCCCCn1cc[n+](CCCCC[n+]2ccn(CCCCCCCCCCCCCCCCCC)c2)c1.O=S(=O)([N-]S(=O)(=O)C(F)(F)C(F)(F)C(F)(F)C(F)(F)F)C(F)(F)C(F)(F)C(F)(F)C(F)(F)F.O=S(=O)([N-]S(=O)(=O)C(F)(F)C(F)(F)C(F)(F)C(F)(F)F)C(F)(F)C(F)(F)C(F)(F)C(F)(F)F		360.1 °C	384.4 °C	402.0 °C	5%, 10%, 20% weight reduction temperatures (thermal stability) higher than perfluoropolyether Z-DOL (Comparative Example 11C) by [1]: ≥ 170 °C; 5%, 10%, 20% weight reduction temperatures (thermal stability) higher than Z-TETRAOL (Comparative Example 12C) by [1]: ≥ 120 °C
CCCCCCCCCCCCCCCCCC[N+]1=C2CCCCCN2CCC1.O=S(=O)([O-])C(F)(F)F		319.2 °C	346.6 °C	389.0 °C	5%, 10%, 20% weight reduction temperatures (thermal stability) higher than perfluoropolyether Z-DOL (Comparative Example 11C) by [1]: ≥ 140 °C; 5%, 10%, 20% weight reduction temperatures (thermal stability) higher than Z-TETRAOL (Comparative Example 12C) by [1]: ≥ 80 °C
C[n+]1ccn(CCC(F)(F)C(F)(F)C(F)(F)C(F)(F)C(F)(F)C(F)(F)C(F)(F)C(F)(F)F)c1.O=S(=O)([N-]S(=O)(=O)C(F)(F)C(F)(F)C(F)(F)C(F)(F)F)C(F)(F)C(F)(F)C(F)(F)C(F)(F)F					5%, 10%, 20% weight reduction temperatures (thermal stability) higher than perfluoropolyether Z-DOL (Comparative Example 11C) by [1]: ≥ 150 °C; 5%, 10%, 20% weight reduction temperatures (thermal stability) higher than Z-TETRAOL (Comparative Example 12C) by [1]: ≥ 90 °C
CCCCCCCCCCCCCCCCCC[N+]1=C2CCCCCN2CCC1.O=S(=O)([O-])C(F)(F)F [Ex. 7A, trifluoromethanesulfonic acid-8-octadecyl-1,8-diazabicyclo[5.4.0]-7-undecenium]					Solubility to fluorine-based solvent [2]: 0.5% by mass or greater; Solubility to fluorine-based solvent ([2]; listed as Example 7A): ≥ 0.5 % by mass
CCCCCCCCCCCCCCCCCC[n+]1ccn(CCCC)c1.O=S(=O)([N-]S(=O)(=O)C(F)(F)C(F)(F)C(F)(F)C(F)(F)F)C(F)(F)C(F)(F)C(F)(F)C(F)(F)F	high				
nonafluorobutanesulfonic acid-N-octadecylpyrrolidinium		339.4 °C	359.0 °C	377.3 °C	Thermal stability improved compared with perfluoropolyether Z-DOL or Z-TETRAOL by [1]: ≥ 95 °C
heptadecafluorooctanesulfonic acid-7-octadecyl-1,5,7-triazabicyclo[4.4.0]-5-decenium	high	356.1 °C	380.4 °C	401.5 °C	
CCCCCCCCCCCCCCCCCC[N+]1(CCCC)CCCC1.O=S(=O)([N-]S(=O)(=O)C(F)(F)C(F)(F)C(F)(F)C(F)(F)F)C(F)(F)C(F)(F)C(F)(F)C(F)(F)F					Thermal stability improved compared with perfluoropolyether Z-DOL or Z-TETRAOL by [1]: ≥ 90 °C
